According to patent US20190343801A1, “COMPOSITIONS AND METHODS FOR CONTROLLING NATURAL KILLER CELL ACTIVATION AND FUNCTION” (BAR ILAN UNIVERSITY, priority 2017, published 2019):
Structures can show the parent of a compound that is named as a salt.

Test system: SHP-1 conformation
Test: YFP-SHP1-CFP FRET sensor analysis of SHP-1 conformation in YTS cells
Type: cell-based
Conditions: inhibitory NKIS (221-Cw4), untreated 11.5±2.5%; 1 μM JAS, 25 μM Y-27
Protocol: Active “open” conformation of SHP-1 results in a large distance between the two fluorescent proteins with no FRET signal. The inactivated, “closed”, conformation of SHP-1 brings the N′- and C′-termini into proximity resulting in high FRET efficiency.
YTS-2DL1 cells transiently expressing YFP-SHP1-CFP were treated with 25 μM Y-27 or left untreated. Cells were incubated on slides with 221-Cw4 or Cw7 target cells expressing mCherry, following 5 min of conjugation at 37° C., cells were treated with 1 μM JAS, and incubated for 5 min before fixation. FRET analysis was performed (see Experimental procedures). […]
FRET was measured by the donor-sensitized acceptor fluorescence technique. Briefly, three sets of filters were used: one optimized for donor fluorescence (excitation, 458 nm, and emission, 465 to 510 nm), a second for acceptor fluorescence (excitation, 514 nm, and emission, 530 to 600 nm), and a third for FRET (excitation, 458 nm; emission, 530 to 600 nm).
FRET correction was performed as previously described. In brief, the non-FRET components were calculated and removed using calibration curves derived from images of single-labeled CFP- or YFP-expressing cells. […] A calibration curve was derived that defined the amount of CFP fluorescence seen in the FRET image as a function of the fluorescence in the CFP image. […]

Q: C[C@@H](N)C1CCC(C(=O)Nc2ccncc2)CC1 (stereo partly drawn) [Formula Y-27, 4-[(1R)-1-aminoethyl]-N N-4-pyridinyl-trans-cyclohexanecarboxamide, dihydrochloride] was tested. Which FRET efficiency did it give?
A: 23.2±1.3%
